# In patent US6620820B2, “Inhibitors of bone reabsorption and antagonists of vitronectin receptors” (Hoechst Aktiengesellschaft, priority 1996, dated 2003):
# Target: T1, human vitronectin receptor (VnR) αVβ3 (Homo sapiens, UniProt P05106+P06756)
# T1 construct: Human vitronectin receptor is isolated from the human placenta using the method of Pytela et al; from tissue; host or cells: human placenta (alternatively 293 cells cotransfected with αV and β3 DNA)
# Assay: Inhibition of the binding of human vitronectin (Vn) to human vitronectin receptor (VnR) αVβ3: ELISA test (Vn/VnR)
# Conditions: plates coated with human vitronectin, test method 1
# From the text: Inhibition of the binding of human vitronectin (Vn) to human vitronectin receptor (VnR) αVβ3: ELISA-Test.
# (In the listing of the test results, test method 1 is abbreviated to Vn/VnR)
# 1. Purification of human vitronectin
# Human vitronectin is isolated from human plasma and purified by affinity chromatography using the method of Yatohyo et al., Cell Structure and Function, 1988, 23, 281-292.
# 2. Purification of human vitronectin receptor (αVβ3)
# Human vitronectin receptor is isolated from the human placenta using the method of Pytela et al., Methods Enzymol. 1987, 144, 475. Human vitronectin receptor αVβ3 can also be isolated from some cell lines (for example from 293 cells, a human embryonic kidney cell line) which are cotransfected with DNA sequences for the two subunits, αV and β3, of the vitronectin receptor. The subunits are extracted with octylglycoside and subsequently chromatographed on concanavalin A, heparin-Sepharose and S-300. […]
# Nunc Maxisorb 96-well microtiter plates are coated, at 4° C. overnight, with a solution of human vitronectin (0.002 mg/ml, 0.05 ml/well) in PBS (phosphate-buffered sodium chloride solution). […] The absorption of each well is measured at 492-405 nm and the data are evaluated using standard methods.
# T1 sequence (P06756 31-889 limits assumed): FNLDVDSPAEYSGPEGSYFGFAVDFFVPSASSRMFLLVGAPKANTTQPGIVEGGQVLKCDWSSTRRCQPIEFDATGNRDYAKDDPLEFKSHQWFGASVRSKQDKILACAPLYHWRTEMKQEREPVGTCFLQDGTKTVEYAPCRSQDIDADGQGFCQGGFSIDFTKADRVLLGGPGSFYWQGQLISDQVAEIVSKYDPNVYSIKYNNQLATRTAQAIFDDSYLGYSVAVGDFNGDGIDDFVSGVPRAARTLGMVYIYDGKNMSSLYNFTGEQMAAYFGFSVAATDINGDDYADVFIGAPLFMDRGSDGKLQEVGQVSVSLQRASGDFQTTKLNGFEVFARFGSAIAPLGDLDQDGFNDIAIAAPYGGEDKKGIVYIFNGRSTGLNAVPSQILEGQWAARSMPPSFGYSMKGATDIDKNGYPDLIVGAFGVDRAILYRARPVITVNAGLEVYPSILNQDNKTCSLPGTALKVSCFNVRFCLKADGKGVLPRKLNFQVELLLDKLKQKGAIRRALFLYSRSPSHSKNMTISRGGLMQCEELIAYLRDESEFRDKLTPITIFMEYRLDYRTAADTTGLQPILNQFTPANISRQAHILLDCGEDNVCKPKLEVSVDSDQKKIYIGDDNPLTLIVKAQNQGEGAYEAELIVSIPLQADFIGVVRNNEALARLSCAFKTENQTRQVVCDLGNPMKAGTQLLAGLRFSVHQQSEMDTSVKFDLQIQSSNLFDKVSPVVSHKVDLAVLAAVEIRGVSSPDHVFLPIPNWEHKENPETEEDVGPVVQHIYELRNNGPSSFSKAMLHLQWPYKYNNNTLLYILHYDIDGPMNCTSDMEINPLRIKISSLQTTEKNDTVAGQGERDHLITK
# T1 sequence (P06756 891-1048 partner limits assumed): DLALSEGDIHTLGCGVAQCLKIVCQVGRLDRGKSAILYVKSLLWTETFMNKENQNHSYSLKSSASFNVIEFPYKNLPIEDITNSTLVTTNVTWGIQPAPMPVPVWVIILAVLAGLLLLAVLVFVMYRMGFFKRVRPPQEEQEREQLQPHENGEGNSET
# T1 sequence (P05106 27-788): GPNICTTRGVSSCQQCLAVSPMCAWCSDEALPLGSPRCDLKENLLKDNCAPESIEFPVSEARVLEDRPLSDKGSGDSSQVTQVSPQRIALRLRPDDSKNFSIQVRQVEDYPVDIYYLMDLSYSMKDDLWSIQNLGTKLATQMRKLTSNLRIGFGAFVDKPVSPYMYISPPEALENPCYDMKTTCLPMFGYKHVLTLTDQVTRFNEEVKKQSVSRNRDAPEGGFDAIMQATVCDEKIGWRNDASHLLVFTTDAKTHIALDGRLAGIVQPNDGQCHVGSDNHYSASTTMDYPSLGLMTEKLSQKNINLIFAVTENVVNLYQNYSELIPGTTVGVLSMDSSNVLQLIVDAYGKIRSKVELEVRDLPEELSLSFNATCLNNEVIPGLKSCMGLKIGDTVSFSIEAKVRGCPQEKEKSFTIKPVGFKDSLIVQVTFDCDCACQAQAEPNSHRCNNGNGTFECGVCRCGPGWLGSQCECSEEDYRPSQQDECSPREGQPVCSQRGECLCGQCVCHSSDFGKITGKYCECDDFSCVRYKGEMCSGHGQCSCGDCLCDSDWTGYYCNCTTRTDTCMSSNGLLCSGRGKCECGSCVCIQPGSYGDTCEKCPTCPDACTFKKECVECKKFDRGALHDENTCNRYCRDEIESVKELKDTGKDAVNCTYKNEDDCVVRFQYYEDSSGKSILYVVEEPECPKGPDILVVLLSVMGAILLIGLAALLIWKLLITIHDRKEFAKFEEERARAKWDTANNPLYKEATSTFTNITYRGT
row,SMILES,IC50 [nM]
1,"O=C(CN1C(=O)N[C@@H](CCCNC2=NCCN2)C1=O)NC[C@H](NC(=O)OCc1ccccc1)C(=O)O [Example 1, (2S)-Benzoylcarbonylamino-3-[2-((4S)-(3-(4,5dihydro-1H-imidazol-2-ylamino)propyl)-2,5-dioxoimidazolidin-1-yl)acetylamino]propionic Acid]",8

# Target: T1, human vitronectin receptor (VnR) αVβ3
# Assay: Inhibition of the binding of Kistrin to human vitronectin receptor (VnR) αVβ3: ELISA test (Kistrin/VnR)
# Conditions: plates coated with Kistrin, test method 2
# Procedure: Nunc Maxisorb 96-well microtiter plates are coated, at 4° C. overnight, with a solution of human vitronectin (0.002 mg/ml, 0.05 ml/well) in PBS (phosphate-buffered sodium chloride solution). The plates are washed twice with PBS/0.05% Tween 20 and blocked by incubating them (for 60 min) with bovine serum albumin (BSA, 0.5%, RIA grade or better) in tris-HCl (50 mM), NaCl (100 mM), MgCl2 (1 mM), CaCl2 (1 mM), MnCl2 (1 mM), pH 7. Solutions of known inhibitors and of the test substances, in concentrations of 2×10^−12−2×10^−6 mol/l, are prepared in assay buffer [BSA (0.5%, RIA grade or better) in tris-HCl (50 mM/l), NaCl (100 mM), MgCl2 (1 mM), CaCl2 (1 mM), MnCl2 (1 mM), pH 7]. The blocked plates are emptied and in each case 0.025 ml of this solution, which contains a defined concentration (from 2×10^−12 to 2×10^−6) of either a known inhibitor or a test substance, is added to each well. 0.025 ml of a solution of the vitronectin receptor in the test buffer (0.03 mg/ml) is pipetted into each well of the plate and the plate is then incubated at room temperature on a shaker for 60-180 min. In the meantime, a solution (6 ml/plate) of a murine monoclonal antibody which is specific for the β3 subunit of the vitronectin receptor is prepared in the assay buffer (0.0015 mg/ml). A second rabbit antibody, which represents an anti-mouse Fc HRP antibody conjugate, is added to this solution (0.001 ml of stock solution/6 ml of the murine mono-clonal anti-β3 antibody solution) and this mixture of the murine anti-β3 antibody and the rabbit anti-mouse Fc HRP antibody conjugate is allowed to incubate while the receptor/inhibitor incubation is in progress. The test plates are washed 4 times with PBS solution containing 0.05% Tween-20 and 0.05 ml of the antibody mixture is in each case pipetted into each well of the plate, which is then incubated for 60-180 min. The plate is washed 4 times with PBS/0.05% Tween-20 and then developed with 0.05 ml/well of a PBS solution which contains 0.67 mg/ml o-phenylenediamine and 0.012% H2O2. Alternatively, o-phenylenediamine can be used in a buffer (pH 5) which contains Na3PO4 (50 mM) and citric acid (0.22 mM). The color development is stopped with 1N H2SO4 (0.05 ml/well). The absorption of each well is measured at 492-405 nm and the data are evaluated using standard methods.
# Inhibition of the binding of Kistrin to human vitronectin receptor (VnR) αVβ3: ELISA test
# (In the listing of the test results, test method 2 is abbreviated to Kistrin/VnR)
# 1. Purification of Kistrin
# Kistrin is purified using the methods of Dennis et al., as described in Proc. Natl. Acad. Sci. USA 1989, 87, 2471-2475 and PROTEINS: Structure, Function and Genetics 1993, 15, 312-321.
# 2. Purification of human vitronectin receptor (αVβ3) see test method 1.
# 3. Monoclonal antibodies see test method 1.
# The ability of substances to inhibit the binding of Kistrin to the vitronectin receptor can be elucidated using an ELISA test. For this purpose, Nunc 96-well microtiter plates are coated with a solution of Kistrin (0.002 mg/ml) in accordance with the method of Dennis et al., as described in PROTEINS: Structure, Function and Genetics 1993, 15, 312-321. The subsequent experimental implementation of the ELISA test is as described in test method1, item 4.
row,SMILES,IC50 [nM]
1,"N=C(N)NC(=O)CC[C@@H]1NC(=O)N(CC(=O)NC[C@H](NC(=O)OCc2ccccc2)C(=O)O)C1=O [Example 19, (2S)-Benzyloxycarbonylamino-3-[2-((4S)-(3-guanidino-3-oxopropyl) -2,5-dioxoimidazolidin-1-yl)acetylamino]propionic Acid]",20
2,"O=C(CN1C(=O)N[C@@H](CCCNC2=NCCN2)C1=O)NC[C@H](NC(=O)OCc1ccccc1)C(=O)O [Example 1, (2S)-Benzoylcarbonylamino-3-[2-((4S)-(3-(4,5dihydro-1H-imidazol-2-ylamino)propyl)-2,5-dioxoimidazolidin-1-yl)acetylamino]propionic Acid]",20
3,"O=C(CN1C(=O)N[C@@H](CC(=O)NNC2=NCCN2)C1=O)NC[C@H](NC(=O)OCc1ccccc1)C(=O)O [Example 7, (2S)-Benzyloxycarbonylamino-3-[2-((4S)-(N′-(4,5-dihydro-1H-imidazol-2-yl)-hydrazinocarbonylmethyl]-2,5-dioxoimidazolidin-1-yl)acetylamino]propionic Acid]",580
4,"N=C(N)NC(=O)NC[C@@H]1NC(=O)N(CC(=O)NC[C@H](NC(=O)OCc2ccccc2)C(=O)O)C1=O [Example 3, (2S)-Benzyloxycarbonylamino-3-[((4S)-(guanidinoacylaminomethyl)-2,5-dioxoimidazolidin-1-yl)acetylamino]propionic Acid]",360
5,"O=C(CN1C(=O)N[C@@H](CC(=O)NNC2=NCCCN2)C1=O)NC[C@H](NC(=O)OCc1ccccc1)C(=O)O [Example 8, (2S)-Benzyloxycarbonylamino-3-[2-(2,5-dioxo-(4S)-(N′-(1,4,5,6-tetrahydro-pyrimidin-2-yl)hydrazinocarbonylmethyl)imidazolidin-1-yl)acetylamino]propionic Acid]",130
6,"O=C(CN1C(=O)N[C@@H](CCCNc2nc3ccccc3[nH]2)C1=O)NC[C@H](NC(=O)OCc1ccccc1)C(=O)O [Example 5, (2S)-Benzyloxycarbonylamino-3-[((4S)-(3-(benzimidazolyl-2-amino)-propyl)-2,5-dioxoimidazolidin-1-yl)acetylamino]propionic Acid]",40
7,O=C(CN1C(=O)N[C@@H](CCc2nc3ccccc3[nH]2)C1=O)NC[C@H](NC(=O)OCc1ccccc1)C(=O)O [Example 18],810
8,"O=C(CN1C(=O)N[C@@H](CCCNc2ncccn2)C1=O)NC[C@H](NC(=O)OCc1ccccc1)C(=O)O [Example 4, (2S)-Benzyloxycarbonylamino-3-[((4S)-(3-(2-pyrimidylamino)propyl)-2,5-dioxoimidazolidin-1-yl)acetylamino]propionic Acid]",1660
